Source: US20180148418A1, “AMIDO-SUBSTITUTED CYCLOHEXANE DERIVATIVES” (Bayer Pharma Aktiengesellschaft, priority 2015, published 2018)

biological target: T1, TNKS2 (Homo sapiens, UniProt Q9H2K2); assay: TNKS2 Assay B (auto-parsylation, [3H]-NAD+ SPA); type: biochemical; conditions: 6 nM TNKS2, auto-parsylation, over night at room temperature
T1 construct: purchased BPS Bioscience, San Diego, USA 80572 (TNKS2 Histone Ribosylation Assay Kit)
T1 sequence (Q9H2K2 1-1166): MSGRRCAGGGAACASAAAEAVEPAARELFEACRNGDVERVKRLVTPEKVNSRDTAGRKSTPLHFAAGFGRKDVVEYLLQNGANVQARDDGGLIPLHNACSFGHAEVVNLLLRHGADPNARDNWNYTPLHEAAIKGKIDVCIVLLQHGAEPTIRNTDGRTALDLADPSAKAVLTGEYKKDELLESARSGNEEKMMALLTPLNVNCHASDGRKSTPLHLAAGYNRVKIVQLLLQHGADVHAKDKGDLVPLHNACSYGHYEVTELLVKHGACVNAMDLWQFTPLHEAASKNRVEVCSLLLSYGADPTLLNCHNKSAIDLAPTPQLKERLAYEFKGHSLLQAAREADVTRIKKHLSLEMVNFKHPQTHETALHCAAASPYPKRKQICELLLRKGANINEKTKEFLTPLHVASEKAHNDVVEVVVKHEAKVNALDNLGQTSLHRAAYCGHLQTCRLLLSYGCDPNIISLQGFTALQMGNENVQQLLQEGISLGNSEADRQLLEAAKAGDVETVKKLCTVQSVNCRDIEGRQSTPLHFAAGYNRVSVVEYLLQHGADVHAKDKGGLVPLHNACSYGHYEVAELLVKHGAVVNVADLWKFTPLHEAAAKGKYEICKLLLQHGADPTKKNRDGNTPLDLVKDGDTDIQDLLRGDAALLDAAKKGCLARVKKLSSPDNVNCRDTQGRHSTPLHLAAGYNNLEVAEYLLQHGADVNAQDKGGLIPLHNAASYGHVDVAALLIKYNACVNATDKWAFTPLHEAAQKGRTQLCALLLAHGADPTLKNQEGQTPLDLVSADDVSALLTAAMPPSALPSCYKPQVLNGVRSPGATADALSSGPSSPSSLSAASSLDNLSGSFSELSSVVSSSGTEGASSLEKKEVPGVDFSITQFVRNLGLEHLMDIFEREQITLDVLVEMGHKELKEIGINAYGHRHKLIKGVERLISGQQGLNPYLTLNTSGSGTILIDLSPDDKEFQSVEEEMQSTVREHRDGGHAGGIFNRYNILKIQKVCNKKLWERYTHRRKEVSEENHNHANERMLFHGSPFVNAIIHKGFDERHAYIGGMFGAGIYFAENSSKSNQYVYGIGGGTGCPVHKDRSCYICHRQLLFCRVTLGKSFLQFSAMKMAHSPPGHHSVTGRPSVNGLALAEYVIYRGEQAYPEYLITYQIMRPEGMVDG

Row | IC50 [nM] | SMILES
1 | 66 | Cc1cnc2c(C(=O)N[C@H]3CC[C@H](C(=O)Nc4ccncc4Cl)CC3)cnn2c1 [Example 104, N-{trans-4-[(3-chloropyridin-4-yl)carbamoyl]cyclohexyl}-6-methyl pyrazolo[1,5-a]pyrimidine-3-carboxamide]
2 | 8.2 | CC(C)NC(=O)c1nc[nH]c1C(=O)N[C@H]1CC[C@@]2(CCN(c3ccc(F)cc3Cl)C2=O)CC1 [Example 162, N^5-[(trans)-2-(2-chloro-4-fluorophenyl)-1-oxo-2-azaspiro[4.5]dec-8-yl]-N^4-isopropyl-1H-imidazole-4,5-dicarboxamide]
3 | 96 | Cc1cc(C)n2ncc(C(=O)NC34CCC(C(=O)Nc5cnccc5Cl)(CC3)CC4)c2n1 [Example 128, N-{4-[(4-chloropyridin-3-yl)carbamoyl]bicyclo[2.2.2]oct-1-yl}-5,7-dimethylpyrazolo[1,5-a]pyrimidine-3-carboxamide]
4 | 590 | CNC(=O)c1[nH]cnc1C(=O)NC12CCC(C(=O)Nc3c(F)cc(F)cc3Cl)(CC1)CC2 [Example 116, N^4-{4-[(2-chloro-4,6-difluorophenyl)carbamoyl]bicyclo[2.2.2]oct-1-yl}-N^5-methyl-1H-imidazole-4,5-dicarboxamide]
